Assay results as given in patent publication US20070104645A1, “Chelate based scaffolds in tumor targeting” (priority 2003, published 2007).
Square brackets hold non-standard residues; d marks the D form. Peptide text beside a SMILES is read from it. Ava = NCCCCC(=O)O

Columns and labels:
ανβ3 receptor = molecular target: T1, ανβ3 receptor (Homo sapiens, UniProt P05106+P06756); assay: whole cell adhesion inhibition assay (HBEC cells on vitronectin-coated plates); assay type: cell-based; conditions: for inhibition of HBEC adhesion (in words): 100 uM
T1 construct: endothelial cells known to express ανβ3 receptors on their surface (HBEC cells); endogenous in cells; host or cells: HBEC endothelial cells
Excerpt: Biological Assay Studies: A biological whole cell adhesion inhibition assay was developed to evaluate the synthesized macrocyclic RGD mimetics. This assay uses endothelial cells known to express ανβ3 receptors on their surface (HBEC cells) and also known to require vitronectin binding at the ανβ3 receptor to initiate adhesion processes. Vitronectin was coated on microtiter plates and exposed to cell suspensions. As the target molecules prepared herein compete with vitronectin for binding at the ανβ3 they will interfere with the adhesion process. This can be used to quantify/rank their ability to do so. The amount of ανβ3 mediated adhesion was determined by cell staining with subsequent quantitation by UV absorption proportional to the amount of stain present. This test procedure has been optimized with regard to vitronectin quantities, cell numbers, volumes, times, and the cell staining process.

Leydig cell tumor = conditions: mouse-based Leydig cell tumor model; cited from earlier work

T1 sequence (P06756 31-889 limits assumed): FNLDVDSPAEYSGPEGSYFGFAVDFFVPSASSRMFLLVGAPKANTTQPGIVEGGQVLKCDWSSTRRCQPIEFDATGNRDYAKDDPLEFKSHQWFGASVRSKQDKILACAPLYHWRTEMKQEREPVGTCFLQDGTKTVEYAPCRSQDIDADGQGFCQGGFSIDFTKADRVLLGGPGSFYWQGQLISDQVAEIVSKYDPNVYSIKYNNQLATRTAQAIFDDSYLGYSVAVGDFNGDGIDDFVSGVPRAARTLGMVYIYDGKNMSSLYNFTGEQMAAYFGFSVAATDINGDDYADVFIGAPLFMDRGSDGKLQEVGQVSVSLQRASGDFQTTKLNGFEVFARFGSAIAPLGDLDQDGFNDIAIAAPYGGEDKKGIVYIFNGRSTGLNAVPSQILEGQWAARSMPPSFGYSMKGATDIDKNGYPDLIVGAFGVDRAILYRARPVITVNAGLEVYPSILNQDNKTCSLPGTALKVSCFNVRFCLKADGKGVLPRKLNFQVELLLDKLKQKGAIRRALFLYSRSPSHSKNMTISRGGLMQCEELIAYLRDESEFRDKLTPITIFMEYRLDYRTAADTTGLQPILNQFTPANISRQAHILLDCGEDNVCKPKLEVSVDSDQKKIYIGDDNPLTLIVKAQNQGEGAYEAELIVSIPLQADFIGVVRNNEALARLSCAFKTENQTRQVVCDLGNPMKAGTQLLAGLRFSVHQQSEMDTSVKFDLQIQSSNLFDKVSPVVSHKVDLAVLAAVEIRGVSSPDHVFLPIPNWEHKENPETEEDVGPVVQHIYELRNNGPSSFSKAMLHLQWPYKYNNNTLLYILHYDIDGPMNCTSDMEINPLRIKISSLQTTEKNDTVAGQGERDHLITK
T1 sequence (P06756 891-1048 partner limits assumed): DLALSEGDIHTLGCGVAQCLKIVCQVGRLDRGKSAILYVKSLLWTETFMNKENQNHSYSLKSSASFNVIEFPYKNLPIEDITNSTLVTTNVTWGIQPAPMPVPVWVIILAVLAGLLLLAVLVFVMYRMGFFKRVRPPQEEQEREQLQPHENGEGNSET
T1 sequence (P05106 27-788): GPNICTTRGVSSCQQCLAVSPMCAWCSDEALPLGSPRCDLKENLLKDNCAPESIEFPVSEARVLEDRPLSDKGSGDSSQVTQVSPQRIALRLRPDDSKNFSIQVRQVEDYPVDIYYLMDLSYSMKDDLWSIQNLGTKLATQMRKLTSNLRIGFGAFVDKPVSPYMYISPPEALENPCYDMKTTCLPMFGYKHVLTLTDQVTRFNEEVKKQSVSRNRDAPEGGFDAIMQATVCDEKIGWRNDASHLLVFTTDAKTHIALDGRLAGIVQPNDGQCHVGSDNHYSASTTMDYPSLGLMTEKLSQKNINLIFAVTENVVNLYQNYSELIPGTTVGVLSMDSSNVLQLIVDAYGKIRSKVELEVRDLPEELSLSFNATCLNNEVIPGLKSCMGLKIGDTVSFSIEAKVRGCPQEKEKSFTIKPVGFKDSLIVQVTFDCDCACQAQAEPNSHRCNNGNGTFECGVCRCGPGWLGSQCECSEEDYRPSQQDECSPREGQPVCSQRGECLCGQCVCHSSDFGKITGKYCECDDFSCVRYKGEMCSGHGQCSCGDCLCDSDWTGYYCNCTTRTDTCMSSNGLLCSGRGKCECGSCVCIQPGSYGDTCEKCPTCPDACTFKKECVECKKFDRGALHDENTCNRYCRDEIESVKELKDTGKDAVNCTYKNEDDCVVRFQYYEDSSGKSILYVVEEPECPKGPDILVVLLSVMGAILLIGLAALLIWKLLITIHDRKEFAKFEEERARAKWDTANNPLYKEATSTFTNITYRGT

SMILES | inhibition of HBEC adhesion (in words) (ανβ3 receptor) | decrease in amount of adhesion (ανβ3 receptor; 20 uMolar) | reduction in tumor growth (Leydig cell tumor)
[H]/N=C(/N)NCCCC(N)C(=O)NCC(=O)NC(CC(=O)O)C(=O)NC(CO)C(=O)O (stereo not shown) [RGDS] | decreased it completely | 69% | 
NC(N)=Nc1cccc(C(=O)NCC(=O)NC(CC(=O)O)c2cc(Cl)cc(Cl)c2)c1 (stereo not shown) [SC-68448] |  |  | up to 80%
NCCCCC(=O)NCC(=O)NC(CC(=O)O)C(=O)NC(CO)C(=O)O (stereo not shown) [lot A015-82PBS] (H-[Ava]GDS-OH; configuration not given here) | completely inactive |  | 
